Molecular target: T1, Purified P450arom (aromatase) reconstituted with P450-reductase (CPR) (Homo sapiens, UniProt P11511)
T1 sequence (P11511 1-503): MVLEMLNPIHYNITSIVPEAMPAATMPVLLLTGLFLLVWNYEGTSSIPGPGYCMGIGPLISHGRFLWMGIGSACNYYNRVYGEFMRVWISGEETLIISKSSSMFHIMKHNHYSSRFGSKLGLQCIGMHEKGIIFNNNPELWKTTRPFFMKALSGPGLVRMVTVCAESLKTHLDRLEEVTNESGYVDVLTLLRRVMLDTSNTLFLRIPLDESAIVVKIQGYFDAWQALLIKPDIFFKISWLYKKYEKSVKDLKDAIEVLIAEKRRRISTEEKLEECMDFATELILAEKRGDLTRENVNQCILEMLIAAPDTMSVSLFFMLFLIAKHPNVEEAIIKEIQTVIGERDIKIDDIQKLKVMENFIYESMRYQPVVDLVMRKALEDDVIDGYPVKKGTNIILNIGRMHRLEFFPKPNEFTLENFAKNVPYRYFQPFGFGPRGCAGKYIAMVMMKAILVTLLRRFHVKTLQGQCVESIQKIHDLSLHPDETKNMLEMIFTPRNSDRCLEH
Assay: Measurement of aromatase activity by 3H-water method
Assay type: biochemical
Conditions: substrate 0.24 μM [1β-3H, 4-14C] androstenedione, 37° C., 20 minutes

[1] = compound concentration 1 (μmol)
[2] = compound concentration 10 (μmol)
[3] = compound concentration 0.1 (μmol)

Compound	% Inhibition [1]	% Inhibition [2]	% Inhibition [3]
CCOC1=C(O)C=C[C@@]2(C)C1=CC[C@@H]1[C@@H]2CC[C@]2(C)C(=O)CC[C@@H]12 [HDDG-007]	12%	0%	–
CO[C@@H]1C[C@@H]2[C@H](CC[C@]3(C)C(=O)CC[C@@H]23)[C@@]2(C)C=CC(=O)C=C12 [HDDG-009]	–	55%	–
COC1=C(O)CC[C@@]2(C)C1=CC[C@@H]1[C@@H]2CC[C@]2(C)C(=O)CC[C@@H]12 [HDDG-020]	72%	61%	21%
CCCCC#CCO[C@@H]1C[C@@H]2[C@H](CC[C@]3(C)C(=O)CC[C@@H]23)[C@@]2(C)C=CC(=O)C=C12 [HDDG-048]	87%	97%	48%
C[C@]12C=CC(=O)C=C1[C@H](OCc1ccccc1)C[C@@H]1[C@@H]2CC[C@]2(C)C(=O)CC[C@@H]12 [HDDG-016]	–	52%	–
COC1=C(O)C=C[C@@]2(C)C1=CC[C@@H]1[C@@H]2CC[C@]2(C)C(=O)CC[C@@H]12 [HDDG-011]	–	37%	–
C[C@]12C=CC(=O)C=C1[C@H](OC/C=C/c1ccccc1)C[C@@H]1[C@@H]2CC[C@]2(C)C(=O)CC[C@@H]12 [HDDG-058, (6R,8R,9S,10R,13S,14S)-6-(cinnamyloxy)-10,13-dimethyl-7,8,9,10,11,12,13,14,15,16-decahydro-3H-cyclopenta[α]phenanthrene-3,17(6H)-dione]	94%	–	95%
C[C@]12C=CC(=O)C=C1[C@H](OCC#Cc1ccc(Cl)c(Cl)c1)C[C@@H]1[C@@H]2CC[C@]2(C)C(=O)CC[C@@H]12 [HDDG-053, (6R,8R,9S,10R,13S,14S)-6-((3-(3,4-dichlorophenyl)prop-2-yn-1-yl)oxy)-10,13-dimethyl-7,8,9,10,11,12,13,14,15,16-decahydro-3H-cyclopenta[α]phenanthrene-3,17(6H)-dione]	91%	–	95%
C#CC(C)(C)O[C@@H]1C[C@@H]2[C@H](CC[C@]3(C)C(=O)CC[C@@H]23)[C@@]2(C)C=CC(=O)C=C12 [HDDG-028]	44%	35%	18%
C[C@]12C=CC(O)=C(OCc3ccccc3)C1=CC[C@@H]1[C@@H]2CC[C@]2(C)C(=O)CC[C@@H]12 [HDDG-043]	97%	90%	18%

From patent US8969327B2, “Substituted androst-4-ene diones” (priority 2010, dated 2015)
